Test results as given in patent publication US12357650B2, “Methods and compositions for cancer therapies that include delivery of halogenated thymidines and thymidine phosphorlylase inhibitors in combination with radiation” (Shuttle Pharmaceuticals, Inc., priority 2017, dated 2025).
“And” between values parts separate entries of the source, which are not always exact repeats. Identical values can stand only once. Like-named read-outs stand apart in the source and are kept apart here.

Experiment: Pharmacokinetic profile of IUdR (100 mg/kg) with and without Tipiracil in rats following single oral administration
Type: in vivo, male Sprague-Dawley rats
Method: The purpose of this study was to determine the pharmacokinetics parameters of IUdR in male Sprague-Dawley rats following single oral (PO) administration the IUdR (i.e., Compound A) and Tipiracil (i.e., Compound B).
A control formulation was prepared where Compound A was dissolved in 5% DMSO+95% PBS to yield a final concentration of 10 mg/mL for oral administration. The prepared formulation was white suspension (pH˜7).
A second formulation was prepared where Compound A and Compound B were dissolved in 5% DMSO+95% PBS to yield a final concentration of 10 mg/mL (Compound A) and 0.79 mg/mL (Compound B) for oral administration. The prepared formulation was white suspension (pH˜7).
Animal Acquisition and Assignment to Study. A total of 8 male experimental Sprague-Dawley Rats were transferred from stock colony, and 6 animals were placed on study.
Dose Administration. The test article was administered via a single oral administration.
Sample Collection and Bioanalysis. Blood samples (approximately 200 μL/sample) were collected via jugular vein at Pre-dose and Post-dose (5 min, 15 min, 30 min, 1 h, 2 h, 4 h, 6 h, 8 h and 24 h). Blood samples were placed into tubes containing K2EDTA and centrifuged conditions at 8000 rpm for 6 minutes at 2-8° C. to separate plasma from the samples. Following centrifugation, the resulting plasma were transferred to clean tubes and stored frozen at −80° C. pending bioanalysis.
Pharmacokinetic Analysis. The PK analysis and interpretation of the results were conducted by Medicilon Preclinical Research (Shanghai) LLC. A non-compartmental module of WinNonlin® Professional was used to calculate parameters. Any BLQs (LLOQ=10.0 ng/mL for Compound A) were omitted when calculate the PK parameters.
Clinical Observations. No abnormal observations were noted.

Q: With `O=c1[nH]c(=O)n([C@H]2C[C@H](O)[C@@H](CO)O2)cc1I` [Compound A, 5-iodo-2′-deoxyuridine] as the compound, how does the “Plasma Concentration of Compound A” value (PO-100 mg/kg Compound A alone or + 7.9 mg/kg Compound B, 0.083 hr, individual animals, LLOQ 10 ng/mL) read?
A: Its value is 192.41 ng/mL and 168.24 ng/mL.

Q: What about the “Plasma Concentration of Compound A” value (PO-100 mg/kg Compound A alone or + 7.9 mg/kg Compound B, 0.25 hr, individual animals, LLOQ 10 ng/mL) of the same compound?
A: The value was 628.30 ng/mL and 538.67 ng/mL.

Q: And the “Plasma Concentration of Compound A” value (PO-100 mg/kg Compound A alone or + 7.9 mg/kg Compound B, 0.5 hr, individual animals, LLOQ 10 ng/mL)?
A: The value was 755.39 ng/mL and 684.80 ng/mL.

Q: What about the “Plasma Concentration of Compound A” value (PO-100 mg/kg Compound A alone or + 7.9 mg/kg Compound B, 1 hr, individual animals, LLOQ 10 ng/mL) of the same compound?
A: Its value is 596.55 ng/mL and 772.49 ng/mL.

Q: What about the “Plasma Concentration of Compound A” value (PO-100 mg/kg Compound A alone or + 7.9 mg/kg Compound B, 2 hr, individual animals, LLOQ 10 ng/mL) of the same compound?
A: The value was 645.17 ng/mL and 943.79 ng/mL.

Q: What about the “Plasma Concentration of Compound A” value (PO-100 mg/kg Compound A alone or + 7.9 mg/kg Compound B, 4 hr, individual animals, LLOQ 10 ng/mL) of the same compound?
A: The value was 316.82 ng/mL and 441.37 ng/mL.

Q: What about the “Plasma Concentration of Compound A” value (PO-100 mg/kg Compound A alone or + 7.9 mg/kg Compound B, 6 hr, individual animals, LLOQ 10 ng/mL) of the same compound?
A: The value was “BLQ and 56.61 ng/mL”.

Q: What about the “Plasma Concentration of Compound A” value (PO-100 mg/kg Compound A alone or + 7.9 mg/kg Compound B, 8 hr, individual animals, LLOQ 10 ng/mL) of the same compound?
A: The value was “BLQ”.

Q: And the “Plasma Concentration of Compound A” value (PO-100 mg/kg Compound A alone or + 7.9 mg/kg Compound B, 24 hr, individual animals, LLOQ 10 ng/mL)?
A: The value was “BLQ”.

Q: What about the AUC(0-inf) (male, Sprague-Dawley, rat, plasma, 100 mg/kg, single oral dose, Example 1, sub-heading prints PO-20 (Compound A) alone or + 7.9 (Compound B) mg/kg, individual animals) of the same compound?
A: The AUC(0-inf) was 2630 ng·h/mL.

Q: And the half-life (male, Sprague-Dawley, rat, plasma, 100 mg/kg, single oral dose, Example 1, sub-heading prints PO-20 (Compound A) alone or + 7.9 (Compound B) mg/kg, individual animals, read-out: t1/2 of Compound A (converted))?
A: The half-life was 0.89 h.

Q: What about the concentration at 0.083 hr (male, Sprague-Dawley, rat, plasma, oral, 100 mg/kg, PO-100 mg/kg Compound A alone or + 7.9 mg/kg Compound B, 0.083 hr, group mean, read-out: Plasma Concentration of Compound A, Mean) of the same compound?
A: Its concentration at 0.083 hr is 184 ng/mL.

Q: What about the concentration at 0.083 hr (male, Sprague-Dawley, rat, plasma, oral, 100 mg/kg, PO-100 mg/kg Compound A alone or + 7.9 mg/kg Compound B, 0.083 hr, individual animals, LLOQ 10 ng/mL, read-out: Plasma Concentration of Compound A) of the same compound?
A: Its concentration at 0.083 hr is 191 ng/mL.

Q: What about the concentration at 0.25 hr (male, Sprague-Dawley, rat, plasma, oral, 100 mg/kg, PO-100 mg/kg Compound A alone or + 7.9 mg/kg Compound B, 0.25 hr, group mean, read-out: Plasma Concentration of Compound A, Mean) of the same compound?
A: The concentration at 0.25 hr was 552 ng/mL.

Q: What about the concentration at 0.25 hr (male, Sprague-Dawley, rat, plasma, oral, 100 mg/kg, PO-100 mg/kg Compound A alone or + 7.9 mg/kg Compound B, 0.25 hr, individual animals, LLOQ 10 ng/mL, read-out: Plasma Concentration of Compound A) of the same compound?
A: The concentration at 0.25 hr was 489 ng/mL.

Q: And the concentration at 0.5 hr (male, Sprague-Dawley, rat, plasma, oral, 100 mg/kg, PO-100 mg/kg Compound A alone or + 7.9 mg/kg Compound B, 0.5 hr, group mean, read-out: Plasma Concentration of Compound A, Mean)?
A: The concentration at 0.5 hr was 689 ng/mL.

Q: And the concentration at 0.5 hr (male, Sprague-Dawley, rat, plasma, oral, 100 mg/kg, PO-100 mg/kg Compound A alone or + 7.9 mg/kg Compound B, 0.5 hr, individual animals, LLOQ 10 ng/mL, read-out: Plasma Concentration of Compound A)?
A: Its concentration at 0.5 hr is 627 ng/mL.

Q: And the concentration at 1 hr (male, Sprague-Dawley, rat, plasma, oral, 100 mg/kg, PO-100 mg/kg Compound A alone or + 7.9 mg/kg Compound B, 1 hr, group mean, read-out: Plasma Concentration of Compound A, Mean)?
A: Its concentration at 1 hr is 642 ng/mL.

Q: And the concentration at 1 hr (male, Sprague-Dawley, rat, plasma, oral, 100 mg/kg, PO-100 mg/kg Compound A alone or + 7.9 mg/kg Compound B, 1 hr, individual animals, LLOQ 10 ng/mL, read-out: Plasma Concentration of Compound A)?
A: Its concentration at 1 hr is 556 ng/mL.

Q: And the concentration at 2 hr (male, Sprague-Dawley, rat, plasma, oral, 100 mg/kg, PO-100 mg/kg Compound A alone or + 7.9 mg/kg Compound B, 2 hr, group mean, read-out: Plasma Concentration of Compound A, Mean)?
A: Its concentration at 2 hr is 788 ng/mL.

Q: And the concentration at 2 hr (male, Sprague-Dawley, rat, plasma, oral, 100 mg/kg, PO-100 mg/kg Compound A alone or + 7.9 mg/kg Compound B, 2 hr, individual animals, LLOQ 10 ng/mL, read-out: Plasma Concentration of Compound A)?
A: Its concentration at 2 hr is 774 ng/mL.

Q: And the concentration at 4 hr (male, Sprague-Dawley, rat, plasma, oral, 100 mg/kg, PO-100 mg/kg Compound A alone or + 7.9 mg/kg Compound B, 4 hr, group mean, read-out: Plasma Concentration of Compound A, Mean)?
A: Its concentration at 4 hr is 345 ng/mL.

Q: What about the concentration at 4 hr (male, Sprague-Dawley, rat, plasma, oral, 100 mg/kg, PO-100 mg/kg Compound A alone or + 7.9 mg/kg Compound B, 4 hr, individual animals, LLOQ 10 ng/mL, read-out: Plasma Concentration of Compound A) of the same compound?
A: The concentration at 4 hr was 276 ng/mL.

Q: And the concentration at 6 hr (male, Sprague-Dawley, rat, plasma, oral, 100 mg/kg, PO-100 mg/kg Compound A alone or + 7.9 mg/kg Compound B, 6 hr, group mean (BLQ omitted), read-out: Plasma Concentration of Compound A, Mean)?
A: Its concentration at 6 hr is 55.3 ng/mL.

Q: And the concentration at 6 hr (male, Sprague-Dawley, rat, plasma, oral, 100 mg/kg, PO-100 mg/kg Compound A alone or + 7.9 mg/kg Compound B, 6 hr, individual animals, LLOQ 10 ng/mL, read-out: Plasma Concentration of Compound A)?
A: The concentration at 6 hr was 54 ng/mL.

Q: And the concentration at 8 hr (male, Sprague-Dawley, rat, plasma, oral, 100 mg/kg, PO-100 mg/kg Compound A alone or + 7.9 mg/kg Compound B, 8 hr, individual animals, LLOQ 10 ng/mL)?
A: The concentration at 8 hr was 14.1 ng/mL.

Q: And the AUC(0-t) (male, Sprague-Dawley, rat, plasma, po, 100 mg/kg, oral administration, Example 1 (100 mg/kg IUdR, ± 7.9 mg/kg Tipiracil), comparison table, mean, read-out: AUC(0-t) of Compound A)?
A: Its AUC(0-t) is 2720 ng·h/mL.

Q: And the Cmax (male, Sprague-Dawley, rat, plasma, po, 100 mg/kg, oral administration, Example 1 (100 mg/kg IUdR, ± 7.9 mg/kg Tipiracil), comparison table, mean, read-out: Cmax of Compound A)?
A: Its Cmax is 824 ng/mL.

Q: And the Tmax (male, Sprague-Dawley, rat, plasma, po, 100 mg/kg, single oral dose, Example 1, sub-heading prints PO-20 (Compound A) alone or + 7.9 (Compound B) mg/kg, group mean)?
A: The Tmax was 1.5 h.

Q: What about the Cmax (male, Sprague-Dawley, rat, plasma, po, 100 mg/kg, single oral dose, Example 1, sub-heading prints PO-20 (Compound A) alone or + 7.9 (Compound B) mg/kg, group mean, read-out: Cmax of Compound A, Mean) of the same compound?
A: Its Cmax is 824 ng/mL.

Q: What about the AUC(0-t) (male, Sprague-Dawley, rat, plasma, po, 100 mg/kg, single oral dose, Example 1, sub-heading prints PO-20 (Compound A) alone or + 7.9 (Compound B) mg/kg, individual animals) of the same compound?
A: The AUC(0-t) was 3320 ng·h/mL.

Q: What about the Cmax (male, Sprague-Dawley, rat, plasma, po, 100 mg/kg, single oral dose, Example 1, sub-heading prints PO-20 (Compound A) alone or + 7.9 (Compound B) mg/kg, individual animals, read-out: Cmax of Compound A) of the same compound?
A: Its Cmax is 944 ng/mL.
